Test results from patent publication US11471387B2, “Oral cavity care method and oral cavity care system” (priority 2017, dated 2022).

Experiments:
[1] = tested on: tissue cells (FIGS. 6B, 6D); experiment: Safety test, survival rate of tissue cells (FIGS. 6B and 6D)
[2] = tested on: tissue cells (FIGS. 6A, 6C); experiment: Safety test, survival rate of tissue cells (FIGS. 6A and 6C)

[H]/N=C(\N/C(=N/[H])NCCCCCCNC(=N)NC(=N)Nc1ccc(Cl)cc1)Nc1ccc(Cl)cc1 [chlorhexidine]
50% survival rate of tissue cells (time) ([1]; FIG. 6B): 8.4 h | cytotoxicity with time ([1]; tissue cells of FIGS. 6B/6D): cytotoxic with time | 50% survival rate of tissue cells (time) ([2]; FIG. 6A): 10.8 h | cytotoxicity with time ([2]; tissue cells of FIGS. 6A/6C): cytotoxic with time
